Data: US20230078811A1, “USE OF DISTILLABLE VOLATILE SALT FOR THE PRETREATMENT OF BIOMASS” (The Regents of the University of California, priority 2020, published 2023)

Experiment: Distillation efficiency: pretreating solvent left in the solids after pretreatment and distillation
Type: physicochemical
Conditions: pretreat 100° C. 1 hour; distill 100° C. 1 hour, full vacuum; 40% solid loading; FIG. 4
Description: Distillation efficiency is measured using the following procedure: pretreat at 100° C. for 1 hour; distill at 100° C. for 1 hours in full vacuum, 40% solid loading (SL) with ethanolamine, enzyme saccharification (5%, 10%, 20% SL), and 10 mg/g biomass of CTEC/HTEC 9/1 cellulase. Distillation efficiency can be measured by determining the concentration of pretreating solvent in the solids after pretreatment.

removal of the solvent by distillation: about 98.7%
SMILES: NCCO [ethanolamine]
